# Source: US7829568B2, “Substituted 5,6,7,8-tetrahydroimidazo[1,2-a]pyridin-2-ylamine compounds and their use for producing drugs” (Gruenenthal GmbH, priority 2005, dated 2010)
# System: batrachotoxin (BTX) binding site of the sodium channel
# Experiment: Affinity to the batrachotoxin (BTX) binding site of the sodium channel
# Parameters: species or system rat
# Conditions: [3H]-batrachotoxinin A20 α-benzoate 10 nM; synaptosomes from rat cerebral cortex; test concentration not given
row,SMILES,BTX inhibition (rat) (% inhibition) [%]
1,"CN(C(=O)c1cccc(Cl)c1)c1nc2n(c1C(=O)NC1CCN(Cc3ccccc3OCc3ccccc3)C1)CCCC2 (centres unmarked) [Example 59, 2-[(3-chloro-benzoyl)-methyl-amino]-5,6,7,8-tetrahydro-imidazo[1,2-a]pyridine-3-carboxylic acid [1-(2-benzyloxy-benzyl)-pyrrolidin-3-yl]-amide]",95
2,"CCCCN(C(=O)c1cccc(Cl)c1)c1nc2n(c1C(=O)Nc1ccc3c(c1)OCCO3)CCCC2 [Example 181, 2-[butyl-(3-chloro-benzoyl)-amino]-5,6,7,8-tetrahydro-imidazo[1,2-a]pyridine-3-carboxylic acid (2,3-dihydro-benzo[1,4]dioxin-6-yl)-amide]",82
3,"CCCCN(C(=O)c1ccc(F)c(F)c1)c1nc2n(c1C(=O)N1CCN(c3cc(Cl)ccc3C)CC1)CCCC2 [Example 119, N-butyl-N-{3-[4-(5-chloro-2-methyl-phenyl)-piperazine-1-carbonyl]-5,6,7,8-tetrahydro-imidazo[1,2-a]pyridin-2-yl}-3,4-difluoro-benzamide]",83
4,"CCCCN(C(=O)c1cccc(Cl)c1)c1nc2n(c1C(=O)NCCCn1ccnc1)CCCC2 [Example 9, 2-[butyl-(3-chloro-benzoyl)-amino]-5,6,7,8-tetrahydro-imidazo[1,2-a]pyridine-3-carboxylic acid (3-imidazol-1-yl-propyl)-amide]",36
5,"CN(C(=O)c1cccc2ccccc12)c1nc2n(c1C(=O)Nc1ccc(Oc3ccccc3)cc1)CCCC2 [Example 185, 2-[methyl-(naphthalene-1-carbonyl)-amino]-5,6,7,8-tetrahydro-imidazo[1,2-a]pyridine-3-carboxylic acid (4-phenoxy-phenyl)-amide]",74
6,"CCCCN(C(=O)c1cccc(Cl)c1)c1nc2n(c1C(=O)NC(c1ccccc1)c1ccccc1)CCCC2 [Example 147, 2-[butyl-(3-chloro-benzoyl)-amino]-5,6,7,8-tetrahydro-imidazo[1,2-a]pyridine-3-carboxylic acid benzhydryl-amide]",56
7,"CCCCN(C(=O)c1cccc(Cl)c1)c1nc2n(c1C(=O)NCCOc1ccccc1)CCCC2 [Example 107, 2-[butyl-(3-chloro-benzoyl)-amino]-5,6,7,8-tetrahydro-imidazo[1,2-a]pyridine-3-carboxylic acid (2-phenoxy-ethyl)-amide]",39
8,"CN(C(=O)Cc1ccccc1)c1nc2n(c1C(=O)N1CCN(CCCc3ccccc3)CC1)CCCC2 [Example 176, N-methyl-2-phenyl-N-{3-[4-(3-phenyl-propyl)-piperazine-1-carbonyl]-5,6,7,8-tetrahydro-imidazo[1,2-a]pyridin-2-yl}-acetamide]",71
9,"CCCCN(C(=O)c1cccc(Cl)c1)c1nc2n(c1C(=O)NCC1COc3ccccc3O1)CCCC2 (centres unmarked) [Example 77, 2-[butyl-(3-chloro-benzoyl)-amino]-5,6,7,8-tetrahydro-imidazo[1,2-a]pyridine-3-carboxylic acid (2,3-dihydro-benzo[1,4]dioxin-2-ylmethyl)-amide]",56
10,"CCCCN(C(=O)c1ccc(F)c(F)c1)c1nc2n(c1C(=O)NC1CCC(C)CC1)CCCC2 (centres unmarked) [Example 16, 2-[butyl-(3,4-difluoro-benzoyl)-amino]-5,6,7,8-tetrahydro-imidazo[1,2-a]pyridine-3-carboxylic acid (4-methyl-cyclohexyl)-amide]",47
11,"CN(C(=O)c1cccc(Cl)c1)c1nc2n(c1C(=O)N1CCN(Cc3ccc4ccccc4n3)CC1)CCCC2 [Example 53, 3-chloro-N-methyl-N-[3-(4-quinolin-2-ylmethyl-piperazine-1-carbonyl)-5,6,7,8-tetrahydro-imidazo[1,2-a]pyridin-2-yl]-benzamide]",64
12,"CCCCN(C(=O)c1ccc(F)c(F)c1)c1nc2n(c1C(=O)N1CCN(c3ccccc3Cl)CC1)CCCC2 [Example 178, N-butyl-N-{3-[4-(2-chloro-phenyl)-piperazine-1-carbonyl]-5,6,7,8-tetrahydro-imidazo[1,2-a]pyridin-2-yl}-3,4-difluoro-benzamide]",79
13,"CN(C(=O)c1cccc2ccccc12)c1nc2n(c1C(=O)N(C)C1CCN(Cc3ccc(-c4ccccc4)cc3)C1)CCCC2 (centres unmarked) [Example 76, 2-[methyl-(naphthalene-1-carbonyl)-amino]-5,6,7,8-tetrahydro-imidazo[1,2-a]pyridine-3-carboxylic acid (1-biphenyl-4-ylmethyl-pyrrolidin-3-yl)-methyl-amide]",95
14,"CN(C(=O)c1cccc(Cl)c1)c1nc2n(c1C(=O)N1CC=C(c3ccc(F)cc3)CC1)CCCC2 [Example 61, 3-chloro-N-{3-[4-(4-fluorophenyl)-3,6-dihydro-2H-pyridine-1-carbonyl]-5,6,7,8-tetrahydro-imidazo[1,2-a]pyridin-2-yl}-N-methyl-benzamide]",38
15,"CCCCN(C(=O)c1cccc(Cl)c1)c1nc2n(c1C(=O)NCc1cccc(F)c1)CCCC2 [Example 158, 2-[butyl-(3-chloro-benzoyl)-amino]-5,6,7,8-tetrahydro-imidazo[1,2-a]pyridine-3-carboxylic acid 3-fluoro-benzylamide]",33
16,"CN(C(=O)c1cccc(Cl)c1)c1nc2n(c1C(=O)NCCC(c1ccccc1)c1ccccc1)CCCC2 [Example 128, 2-[(3-chloro-benzoyl)-methyl-amino]-5,6,7,8-tetrahydro-imidazo[1,2-a]pyridine-3-carboxylic acid (3,3-diphenyl-propyl)-amide]",85
17,"CCCCN(C(=O)c1ccc(F)c(F)c1)c1nc2n(c1C(=O)N1CCN(c3cc(C)ccc3C)CC1)CCCC2 [Example 138, N-butyl-N-{3-[4-(2,5-dimethyl-phenyl)-piperazine-1-carbonyl]-5,6,7,8-tetrahydro-imidazo[1,2-a]pyridin-2-yl}-3,4-difluoro-benzamide]",80
18,"CN(C(=O)c1cccc(Cl)c1)c1nc2n(c1C(=O)Nc1ccc(OCc3ccccc3)cc1)CCCC2 [Example 129, 2-[(3-chloro-benzoyl)-methyl-amino]-5,6,7,8-tetrahydro-imidazo[1,2-a]pyridine-3-carboxylic acid (4-benzyloxy-phenyl)-amide]",76
19,"CN(C(=O)c1ccccc1)c1nc2n(c1C(=O)Nc1ccc3c(c1)OCO3)CCCC2 [Example 85, 2-(benzoyl-methyl-amino)-5,6,7,8-tetrahydro-imidazo[1,2-a]pyridine-3-carboxylic acid benzo[1,3]dioxol-5-ylamide]",30
20,"CN(C(=O)c1cccc(Cl)c1)c1nc2n(c1C(=O)NC1CCN(Cc3c(Cl)cccc3Cl)C1)CCCC2 (centres unmarked) [Example 83, 2-[(3-chloro-benzoyl)-methyl-amino]-5,6,7,8-tetrahydro-imidazo[1,2-a]pyridine-3-carboxylic acid [1-(2,6-dichlor-benzyl)-pyrrolidin-3-yl]-amide]",80
21,"CN(C(=O)c1ccccc1)c1nc2n(c1C(=O)N1CCN(c3ccc(C(F)(F)F)cc3)CC1)CCCC2 [Example 167, N-methyl-N-{3-[4-(4-trifluoromethyl-phenyl)-piperazine-1-carbonyl]-5,6,7,8-tetrahydro-imidazo[1,2-a]pyridin-2-yl}-benzamide]",44
22,"CCCCN(C(=O)c1cccc(Cl)c1)c1nc2n(c1C(=O)Nc1ccc(C(C)(C)C)cc1)CCCC2 [Example 152, 2-[butyl-(3-chloro-benzoyl)-amino]-5,6,7,8-tetrahydro-imidazo[1,2-a]pyridine-3-carboxylic acid (4-tert-butyl-phenyl)-amide]",92
23,"CN(C(=O)c1cccc2ccccc12)c1nc2n(c1C(=O)Nc1ccc(C(C)(C)C)cc1)CCCC2 [Example 170, 2-[methyl-(naphthalene-1-carbonyl)-amino]-5,6,7,8-tetrahydro-imidazo[1,2-a]pyridine-3-carboxylic acid (4-tert-butyl-phenyl)-amide]",80
24,"CN(C(=O)c1cccc2ccccc12)c1nc2n(c1C(=O)N1CCN(CC=Cc3ccccc3)CC1)CCCC2 [Example 173, naphthalene-1-carboxylic acid methyl-{3-[4-(3-phenyl-allyl)-piperazine-1-carbonyl]-5,6,7,8-tetrahydro-imidazo[1,2-a]pyridin-2-yl}-amide]",74
25,"CCCCN(C(=O)c1ccc(F)c(F)c1)c1nc2n(c1C(=O)NCCC(c1ccccc1)c1ccccc1)CCCC2 [Example 180, 2-[butyl-(3,4-difluoro-benzoyl)-amino]-5,6,7,8-tetrahydro-imidazo[1,2-a]pyridine-3-carboxylic acid (3,3-diphenyl-propyl)-amide]",62
26,"CCCCN(C(=O)c1cccc(Cl)c1)c1nc2n(c1C(=O)N1CCN(c3ccccn3)CC1)CCCC2 [Example 72, N-butyl-3-chloro-N-[3-(4-pyridin-2-yl-piperazine-1-carbonyl)-5,6,7,8-tetrahydro-imidazo[1,2-a]pyridin-2-yl]-benzamide]",39
27,"CCCCN(C(=O)c1cccc(Cl)c1)c1nc2n(c1C(=O)NCc1ccc(F)cc1F)CCCC2 [Example 47, 2-[butyl-(3-chloro-benzoyl)-amino]-5,6,7,8-tetrahydro-imidazo[1,2-a]pyridine-3-carboxylic acid 2,4-difluoro-benzylamide]",44
28,"CCCCN(C(=O)c1cccc(Cl)c1)c1nc2n(c1C(=O)N1CCN(c3ccccc3F)CC1)CCCC2 [Example 48, N-butyl-3-chloro-N-{3-[4-(2-fluoro-phenyl)-piperazine-1-carbonyl]-5,6,7,8-tetrahydro-imidazo[1,2-a]pyridin-2-yl}-benzamide]",89
29,"CC(C)CC(NC(=O)c1c(N(C)C(=O)c2cccc3ccccc23)nc2n1CCCC2)C(=O)OCc1ccccc1 (centres unmarked) [Example 57, 4-methyl-2-({2-[methyl-(naphthalene-1-carbonyl)-amino]-5,6,7,8-tetrahydro-imidazo[1,2-a]pyridine-3-carbonyl}-amino)-pentanoic acid benzyl ester]",31
